Assay results from patent US12729377B2, “RNAi agents and compositions for inhibiting expression of angiopoietin-like 3 (ANGPTL3), and methods of use” (Arrowhead Pharmaceuticals, Inc., priority 2017, dated 2026).

Tests used:
Format in all cases: in vivo, LDLR KO mice
[1] = test system: ANGPTL3 protein; experiment: Example 14: RNAi agent and statin, serum ANGPTL3 protein by ELISA in LDLR knockout mice; conditions: no injection
Excerpt: (§1) To evaluate the effect of co-administration of RNAi agents and statins in a disease model, LDLR KO mice were commercially obtained (The Jackson Laboratory). For three weeks prior to the onset of the study, forty-one (41) male 7 to 8 week old LDLR KO mice were placed on a high fat (“western”) diet (Teklad Custom Diets TD.88137), and remained on that diet throughout the duration of the study. Pre-dose serum samples were taken on study Day 1 after a four hour fast. The dosing regimen for the study is recited in the following Table 72:
(§2) • Mice were treated at 40 mg/kg for the first 11 days, then switched to 20 mg/kg thereafter.
(§3) The vehicle used for the oral gavage in the study was a 1:1 mixture of Ora-Plus®: Ora-Sweet® solution, which were acquired commercially. For the preparation of the atorvastatin oral gavage administrations, the respective desired dose of atorvastatin was first dissolved in sterile water (0.3 mL water per 1 mL of desired formulation) and vortexed until smooth, followed by the addition of a mixture of 1:1 Ora-Plus®: Ora-Sweet® solution (0.7 mL vehicle per 1 mL of desired formulation) and vortexed. On day 1 and for each day thereafter an oral gavage dose was administered for each of the Groups except for Group 2. On Day 23, Groups 1, 2, 3, and 4 received a single subcutaneous administration of 2.5 mg/kg dose ([…] solution) of an ANGPTL3 RNAi agent in D5W (dextrose in 5% water), or vehicle control (D5W) with no RNAi agent.
(§4) The RNAi agent tested (AD05488) included a modified sequence and an N-acetyl-galactosamine-containing targeting ligand conjugated to the 5′ terminal end of the sense strand. (See Tables 3, 4, and 5 for modified sequences and targeting ligand structures). The injections were performed between the skin and muscle (i.e. subcutaneous injections) into the loose skin over the neck and shoulder area. Serum was collected on days 8, 15, 22 (pre-RNAi agent injection), 29, 36, 43, and 50. LDLR KO mice were fasted for four hours prior to each collection.
(§5) ANGPTL3 protein levels in serum were measured by ELISA assay (R&D Systems), according to the manufacturer's recommendations. Among other biomarkers, triglycerides, total cholesterol, and low-density lipoprotein (LDL) in serum were measured on a Cobas® Integra 400 (Roche Diagnostics), according to the manufacturer's recommendations.
(§6) The ANGPTL3 protein levels, triglyceride levels, total cholesterol levels, HDL levels, and LDL levels for each animal were normalized. For normalization, respective levels of ANGPTL3 protein, TG, total cholesterol, or LDL for each animal at a time point was divided by the pre-treatment level of expression in that animal (in this case pre-dose levels on Day 1) to determine the ratio of expression “normalized to pre-treatment.” Data from the study set forth in this Example are shown in the following Tables 73-76: […]

[2] = test system: ANGPTL3 gene; experiment: Example 14: RNAi agent and statin, serum LDL in LDLR knockout mice; conditions: for Avg LDL normalized to pre-treatment: no injection
Excerpt: as §1, §2, §3, §4, §5, §6

[3] = test system: ANGPTL3 gene; experiment: Example 14: RNAi agent and statin, serum total cholesterol in LDLR knockout mice; conditions: for Avg Total Chol normalized to pre-treatment: no injection
Excerpt: as §1, §2, §3, §4, §5, §6

[4] = test system: ANGPTL3 gene; experiment: Example 14: RNAi agent and statin, serum triglycerides in LDLR knockout mice; conditions: for Avg TG normalized to pre-treatment: no injection
Excerpt: as §1, §2, §3, §4, §5, §6

[5] = Group 5: 10 mg/kg daily oral gavage atorvastatin, Day 8
[6] = Group 5: 10 mg/kg daily oral gavage atorvastatin, Day 15
[7] = Group 5: 10 mg/kg daily oral gavage atorvastatin, Day 22
[8] = Group 5: 10 mg/kg daily oral gavage atorvastatin, Day 29
[9] = Group 5: 10 mg/kg daily oral gavage atorvastatin, Day 36
[10] = Group 5: 10 mg/kg daily oral gavage atorvastatin, Day 43
[11] = Group 5: 10 mg/kg daily oral gavage atorvastatin, Day 50
[12] = Group 6: 20 mg/kg* daily oral gavage atorvastatin (40 mg/kg first 11 days), Day 8
[13] = Group 6: 20 mg/kg* daily oral gavage atorvastatin (40 mg/kg first 11 days), Day 15
[14] = Group 6: 20 mg/kg* daily oral gavage atorvastatin (40 mg/kg first 11 days), Day 22
[15] = Group 6: 20 mg/kg* daily oral gavage atorvastatin (40 mg/kg first 11 days), Day 29
[16] = Group 6: 20 mg/kg* daily oral gavage atorvastatin (40 mg/kg first 11 days), Day 36
[17] = Group 6: 20 mg/kg* daily oral gavage atorvastatin (40 mg/kg first 11 days), Day 43
[18] = Group 6: 20 mg/kg* daily oral gavage atorvastatin (40 mg/kg first 11 days), Day 50
[19] = daily atorvastatin by oral gavage, LDLR KO mice on high fat diet

Compound: CC(C)c1c(C(=O)Nc2ccccc2)c(-c2ccccc2)c(-c2ccc(F)cc2)n1CC[C@@H](O)C[C@@H](O)CC(=O)O [atorvastatin, reference compound]
- Avg ANGPTL3 normalized to pre-treatment [1, 5]: 1.577
- Avg ANGPTL3 normalized to pre-treatment [1, 6]: 1.839
- Avg ANGPTL3 normalized to pre-treatment [1, 7]: 1.693
- Avg ANGPTL3 normalized to pre-treatment [1, 8]: 1.764
- Avg ANGPTL3 normalized to pre-treatment [1, 9]: 1.851
- Avg ANGPTL3 normalized to pre-treatment [1, 10]: 1.758
- Avg ANGPTL3 normalized to pre-treatment [1, 11]: 1.878
- Avg ANGPTL3 normalized to pre-treatment [1, 12]: 1.553
- Avg ANGPTL3 normalized to pre-treatment [1, 13]: 1.924
- Avg ANGPTL3 normalized to pre-treatment [1, 14]: 1.871
- Avg ANGPTL3 normalized to pre-treatment [1, 15]: 1.767
- Avg ANGPTL3 normalized to pre-treatment [1, 16]: 1.981
- Avg ANGPTL3 normalized to pre-treatment [1, 17]: 1.935
- Avg ANGPTL3 normalized to pre-treatment [1, 18]: 1.847
- Avg LDL normalized to pre-treatment [2, 5]: 0.778
- Avg LDL normalized to pre-treatment [2, 6]: 0.695
- Avg LDL normalized to pre-treatment [2, 7]: 0.861
- Avg LDL normalized to pre-treatment [2, 8]: 0.881
- Avg LDL normalized to pre-treatment [2, 9]: 0.996
- Avg LDL normalized to pre-treatment [2, 10]: 0.929
- Avg LDL normalized to pre-treatment [2, 11]: 0.872
- Avg LDL normalized to pre-treatment [2, 12]: 0.490
- Avg LDL normalized to pre-treatment [2, 13]: 0.556
- Avg LDL normalized to pre-treatment [2, 14]: 0.687
- Avg LDL normalized to pre-treatment [2, 15]: 0.700
- Avg LDL normalized to pre-treatment [2, 16]: 0.716
- Avg LDL normalized to pre-treatment [2, 17]: 0.689
- Avg LDL normalized to pre-treatment [2, 18]: 0.687
- reduction in LDL [2, 19]: 30-45%
- Avg Total Chol normalized to pre-treatment [3, 5]: 0.821
- Avg Total Chol normalized to pre-treatment [3, 6]: 0.774
- Avg Total Chol normalized to pre-treatment [3, 7]: 0.980
- Avg Total Chol normalized to pre-treatment [3, 8]: 0.943
- Avg Total Chol normalized to pre-treatment [3, 9]: 1.105
- Avg Total Chol normalized to pre-treatment [3, 10]: 0.998
- Avg Total Chol normalized to pre-treatment [3, 11]: 0.987
- Avg Total Chol normalized to pre-treatment [3, 12]: 0.586
- Avg Total Chol normalized to pre-treatment [3, 13]: 0.620
- Avg Total Chol normalized to pre-treatment [3, 14]: 0.767
- Avg Total Chol normalized to pre-treatment [3, 15]: 0.761
- Avg Total Chol normalized to pre-treatment [3, 16]: 0.825
- Avg Total Chol normalized to pre-treatment [3, 17]: 0.767
- Avg Total Chol normalized to pre-treatment [3, 18]: 0.807
- reduction in total cholesterol [3, 19]: 23-40%
- Avg TG normalized to pre-treatment [4, 5]: 0.667
- Avg TG normalized to pre-treatment [4, 6]: 0.601
- Avg TG normalized to pre-treatment [4, 7]: 1.086
- Avg TG normalized to pre-treatment [4, 8]: 0.803
- Avg TG normalized to pre-treatment [4, 9]: 0.958
- Avg TG normalized to pre-treatment [4, 10]: 0.862
- Avg TG normalized to pre-treatment [4, 11]: 0.977
- Avg TG normalized to pre-treatment [4, 12]: 0.477
- Avg TG normalized to pre-treatment [4, 13]: 0.362
- Avg TG normalized to pre-treatment [4, 14]: 0.505
- Avg TG normalized to pre-treatment [4, 15]: 0.552
- Avg TG normalized to pre-treatment [4, 16]: 0.598
- Avg TG normalized to pre-treatment [4, 17]: 0.603
- Avg TG normalized to pre-treatment [4, 18]: 0.677
- reduction in triglycerides [4, 19]: 40-60%
